Laboratory results taken from patent US20260345582A1, “PRODRUG FOR ANTI-AGING RELATED DISEASES AND USE METHOD THEREOF” (Beijing SunCell Bio-Medical Co., Ltd., priority 2022, published 2026).

What was measured:
[1] = system: platelets in peripheral blood; experiment: in vivo platelet toxicity test, multiple intraperitoneal injections; parameters: species or system C57 mice
Experimental: B. The schematic diagram of the multiple dosing and the subsequent blood routine examinations in mice. The drug was administered on 3 consecutive days per week, followed by a 4-day interval, for 3 weeks continuous administration. The drug was administered by intraperitoneal injection in the afternoon on days 0, 1, 2, 7, 8, 9, 14, 15, and 16, and the blood was collected and tested in the morning on days 1, 3, 5, 8, 10, 12, 15, 17, and 19, respectively.
C. Results of the platelet counts in peripheral blood on days 1, 3, 5, 8, 10, 12, 15, 17, and 19 after multiple intraperitoneal injections of different doses of the given drug. Each dot in the panel represents the count of platelets detected in 1 mouse at that time point (n=4 mice); mpk represents the milligram dose per kilogram of the body weight, A13 represents the parent compound A1331852 administration group, and A13bGa1 represents the prodrug obtained after the β-gal modification of A13. The dashed line in the panel indicates the mean value of platelet counts in mice in the single vehicle administration control group.
In Vivo Platelet Toxicity Test
A single administration of A13 or A13bG was performed. Female 5-6 week old C57 mice were treated with a single intraperitoneal injection. A13 and A13bG were administered in three different dose groups of 2, 5, and 20 mg/kg. Approximately 50 μl of blood was collected from each mouse at different time points into the EDTA tubes (RAM Scientific) by means of inner canthal blood extraction, and analyzed using a haematology analyzer for a blood routine examination and a platelet counting. Multiple administrations of A13 or A13bG were performed. Female 5-6 week old C57 mice were treated with multiple intraperitoneal injections. A13 and A13bG were administered in three different dose groups of 2, 5 and 20 mg/kg, three consecutive days per week, followed by a 4-day withdrawal for 3 weeks. The time points of administration were in the afternoon of days 0, 1, 2, 7, 8, 9, 14, 15, and 16, and the time points of blood collection and testing were in the morning of days 1, 3, 5, 8, 10, 12, 15, 17, and 19, respectively.
For a blood routine examination, 50 μl of fresh blood was collected from each mouse and immediately mixed with EDTA. Blood samples were analyzed by Celltac Alpha MEK-6400 series haematology analyzer (Nihon Kohden, MEK-6400). Data were expressed as the number of different blood cells or platelets per μl of blood. For the serum biochemical analysis, the blood samples were collected, coagulated for 2 hours at room temperature or overnight at 4 °C, and then centrifuged (1000 g, 10 minutes) to obtain serum. A 200 μl of serum was aliquoted and analyzed for alanine aminotransferase (ALT), aspartate aminotransferase (AST), uric acid (UA), and creatinine (CREA) by a chemistry analyzer (Mindray, BS-350E).

[2] = system: mouse model of Bleomycin-induced pulmonary fibrosis; experiment: lung specific gravity index in Bleomycin-induced pulmonary fibrosis; type: in vivo, C57 mice; conditions: i.p. four weeks; A13 2 mg/kg, A13bGa1 5 mg/kg; FIG. 5C
Experimental: (§1) A. Modelling of a mouse model of Bleomycin-induced pulmonary fibrosis, and the schematic diagram of treatment. Mice were modelled with Bleomycin administered via tracheal instillation on day 0, and the treatment with intraperitoneal injection of the drug was started on day 4. The drug was administered for 3 consecutive days per week, followed by a 4-day withdrawal, for 4 weeks.
C. Comparison of lung specific gravity index calculated for different groups of mice. After completion of drug administration according to the dosing protocol, the mice were executed and the lungs of the mice were taken and weighed to calculate the lung specific gravity index, lung index=the lung weight (g)/the body weight (g)×100%. A13 represents the A1331852 treatment group at a dose of 2 mg/kg; A13bGa1 represents prodrug treatment group at a dose of 5 mg/kg; VEH represents the vehicle treatment control group; and NC represents the saline tracheal instillation modelling control group. Each dot in the panel represents the result of the lung specific gravity index of 1 mouse, n=5 in the saline modelling control group, and n=6 in other groups. The statistical analysis was performed using unpaired T-test, ns indicates no statistical difference; with *p<0.05; and **p<0.01. […]

[3] = system: mouse model of Bleomycin-induced pulmonary fibrosis; experiment: HE pathological changes in the lungs, Bleomycin-induced pulmonary fibrosis; type: in vivo, C57 mice; conditions: A13 2 mg/kg, A13bGa1 5 mg/kg; for inflammation and consolidation of the mouse lungs (HE pathology): i.p. four weeks, FIG. 5D and Table 1
Experimental: as §1
D. Representative results of HE and Masson staining of the pathological sections of lungs taken from different groups of mice after execution. Normal represents the saline tracheal instillation modelling control group; Vehicle represents the vehicle administration control group; A13bGa1 represents the prodrug treatment group; A13 represents the A1331852 treatment group. Scale bar: 500 μm.
All drugs were mixed in 85% physiological saline, 5% DMSO (Sigma, D8418) and 10% Solutol HS 15 (Sigma, 42966), and administered to mice by intraperitoneal (i.p.) injection. To treat the bleomycin-injured young mice, A13 (2 mg/kg), A13bGa1 (5 mg/kg), or an empty vehicle control was administered three consecutive days per week for four weeks. A1331852 (abbreviated as A13) was purchased from MCE.
Bleomycin-Induced Pulmonary Fibrosis
Bleomycin was purchased from Selleck. As previously reported (Bivas-Benita et al., Eur J Pharm Biopharm 61, 214-218 (2005)), a transtracheal injection of bleomycin (2 mg/kg) was performed to the young male C57 mice (8-10 weeks old) to induce lung fibrosis. Drug treatment was initiated four days after modelling, and the drug was administered three consecutive days per week for four consecutive weeks, after which the mice were executed for material collection.
Histopathological Examination
All animals (including those found dead, dying, and euthanised) were autopsied, and the lung tissues were preserved. The lungs were separated, the fat and other tissues were removed, the surface fluid was absorbed using a filter paper, and the whole lungs were weighed (those found dead, dying, and euthanised) for calculation of the lung weight index. The right lung and bronchiole were fixed in 10% neutral buffered formalin solution, embedded in paraffin, sectioned, prepared into slices, and stained with HE for a histopathological and morphological observation of the lung. The degree of the lesions such as the inflammatory cell infiltration in the lung tissue were graded according to a 4-grade classification (slight, mild, moderate, severe) using a standard terminology for diagnosis and classification. The left lung tissue was clipped and stored temporarily below −60′C.

Q: Which “toxic effects on the platelets at the lowest dose” value ([1]; multiple rounds i.p., 2 mg/kg, 3 consecutive days per week, 3 weeks, FIG. 4C) does the source give for `Cc1c(-c2ccc(N3CCc4cccc(C(=O)Nc5nc6ccccc6s5)c4C3)nc2C(=O)O)cnn1CC12CC3CC(CC(C3)C1)C2` [Compound A13, 3-[1-(adamantan-1-ylmethyl)-5-methylpyrazol-4-yl]-6-{8-[(1,3-benzothiazol-2-yl)carbamoyl]-3,4-dihydro-1H-isoquinolin-2-yl}pyridine-2-carboxylic acid] here?
A: Its value is “very serious toxic effects on the platelets”.

Q: And the “destructive effects on the platelets at the three doses tested” value ([1]; multiple rounds i.p., 2, 5, 20 mg/kg, FIG. 4C)?
A: Its value is “strong destructive effects on the platelets”.

Q: What about the “number of the peripheral blood platelets during monitoring” value ([1]; multiple rounds i.p., FIG. 4C) of the same molecule?
A: The value was “dramatic fluctuations in the number of the peripheral blood platelets”.

Q: And the “lung specific gravity index (lung weight/body weight×100%)” value [2]?
A: The value was “no improvement in the lung index”.

Q: And the “inflammation and consolidation of the mouse lungs (HE pathology)” value [3]?
A: Its value is “no improvement”.

Q: What does the source list for `Cc1c(-c2ccc(N3CCc4cccc(C(=O)Nc5nc6ccccc6s5)c4C3)nc2C(=O)OCc2ccc(O[C@@H]3O[C@H](CO)[C@H](O)[C@H](O)[C@H]3O)c([N+](=O)[O-])c2)cnn1CC12CC3CC(CC(C3)C1)C2` [Compound A13bGa1]?
A: changes in the number of the peripheral blood platelets ([1]; multi-round i.p. regimen, FIG. 4C): relatively stable; toxic side effects on the platelets ([1]; multi-round i.p. regimen, in contrast to A13, FIG. 4C): significantly reduced; lung specific gravity index (lung weight/body weight×100%) [2]: recovered to the normal level; inflammation and consolidation of the mouse lungs (HE pathology) [3]: significant improvement; Bleeding, alveolar/interstitial: mild (++) ([3]; of 6 animals): 0 number of animals; Bleeding, alveolar/interstitial: moderate (+++) ([3]; of 6 animals): 0 number of animals; Bleeding, alveolar/interstitial: negative (−) ([3]; of 6 animals): 3 number of animals; Bleeding, alveolar/interstitial: slight (+) ([3]; of 6 animals): 3 number of animals; Exudative oedema, alveolar: mild (++) ([3]; of 6 animals): 2 number of animals; Exudative oedema, alveolar: moderate (+++) ([3]; of 6 animals): 1 number of animals; Exudative oedema, alveolar: negative (−) ([3]; of 6 animals): 2 number of animals; Exudative oedema, alveolar: severe (++++) ([3]; of 6 animals): 0 number of animals; Exudative oedema, alveolar: slight (+) ([3]; of 6 animals): 1 number of animals; The infiltration of the inflammatory cells: mild (++) ([3]; of 6 animals): 0 number of animals; The infiltration of the inflammatory cells: moderate (+++) ([3]; of 6 animals): 1 number of animals; The infiltration of the inflammatory cells: negative (−) ([3]; of 6 animals): 4 number of animals; The infiltration of the inflammatory cells: slight (+) ([3]; of 6 animals): 1 number of animals; Thickening and consolidation of the pulmonary septum: mild (++) ([3]; of 6 animals): 5 number of animals; Thickening and consolidation of the pulmonary septum: moderate (+++) ([3]; of 6 animals): 0 number of animals; Thickening and consolidation of the pulmonary septum: negative (−) ([3]; of 6 animals): 1 number of animals; Thickening and consolidation of the pulmonary septum: severe (++++) ([3]; of 6 animals): 0 number of animals; Thickening and consolidation of the pulmonary septum: slight (+) ([3]; of 6 animals): 0 number of animals
